Laboratory results: patent US8853188B2, “Compositions and methods for cancer treatment” (Women and Infants Hospital of RI, Inc., priority 2005, dated 2014)
“Also recorded” adds a separate entry of the source.

Tests used:
[1] = test system: TrkB signaling by BDNF; assay: Effect on TrkB signaling by BDNF (Western Blot); assay type: cell-based; conditions: neuroblastoma cells
Procedure: (§1) Materials and methods. Proliferation was measured by MTS and BrdU incorporation assays. Apoptosis was assessed by DNA fragmentation, Cell Death Detection ELISA and caspase-3-assays. Effect of B3CD on TrkB signaling by BDNF was assessed by Western Blot analysis of AKT and ERK phosphorylation. The effect on angiogenesis was determined by chick chorioallantoic membrane (CAM) assay and aortic ring assay.
(§2) Neuroblastoma cells were treated with B3CD for 48 hrs. […] AT 0.5 nM, B3CD inhibited >50% (p<0.035) and >90% at […] (p<0.01) viability and proliferation respectively.

[2] = test system: neuroblastic cells; assay: Apoptosis (DNA fragmentation, Cell Death Detection ELISA), FIG. 4A; assay type: cell-based
Procedure: as §1
(§3) B3CD was tested on the panel of cell described above. […] Such cell-type specificity is not uncommon. […] However, keratinocytes were not affected by B3CD (FIG. 4A; Lane-2). In addition, caspase-3 activity was increased by B3CD (FIG. 4B). These studies indicated an underlying apoptotic mechanism in the anticancer activity of B3CD.

[3] = test system: SK-N-SH cells; assay: Proliferation by BrdU incorporation assay; assay type: cell-based; conditions: 0-800 nM, 48 hours
Procedure: (§4) SK-N-SH and SH-SY5Y neuroblastic cells were treated with increasing doses of calcidiol or B3CD (0, 25, 50, 100, 200, 400 and 800 nM) for 48 hours. Cell viability was assessed by MTS assay and proliferation was determined by BrdU incorporation assay.

[4] = test system: caspase-3; assay: Caspase-3 assay in neuroblastic cells, FIG. 4B; assay type: cell-based
Procedure: as §1, §3

[5] = test system: Human umbilical vein endothelial cells (HUVEC); assay: Endothelial cell BrdU incorporation assay; assay type: cell-based; conditions: 25-400 nM, 24 hours
Procedure: Human umbilical vein endothelial cells (HUVEC) were treated with B3CD (25, 50, 100, 200 and 400 nM) for 24 hours and proliferation was measured as before. Vehicle and CD treated controls were used in each experiment. […] Following the treatment with B3CD, the endothelial cells were rounded up and floated, showing indications of apoptosis similar to NB.

[6] = test system: VEGF induced angiogenesis; assay: Chick chorioallantoic membrane (CAM) assay; assay type: in vivo
Procedure: as §1
The antiproliferative effect of B3CD on endothelial cells was further investigated.
The ability of B3CD to inhibit angiogenesis/neovascularization was tested. Preliminary studies were carried out using chick chorioallantoic membrane (CAM) assay. Calcidiol or B3CD were deposited in the presence of growth factor (VEGF) and deposited on the CAM and eggs were incubated for 3 days at 37° C. (3% CO2). The control carried the growth factor alone. VEGF induces angiogenesis which results in sprouting of capillaries from the large vessels. The compounds diffuse out and any inhibitory molecule would reduce the growth of blood vessel network.

[7] = test system: IMR-32 cells; assay: Proliferation of apoptosis-resistant NB cells; assay type: cell-based; conditions: data not shown
[8] = test system: caspase-3; assay: Caspase-3 activation in endothelial cells; assay type: cell-based; conditions: data not shown
Text: Apoptosis in EC by B3CD was studied by DNA fragmentation and caspase-3 activation analyses as before.

[9] = test system: SK-N-SH cells; assay: Cell cycle analysis; assay type: cell-based; conditions: 400 nm
[10] = test system: caspase-3; assay: Caspase-3 activation with specific substrate in SK-N-SH cells; assay type: cell-based; conditions: 250 nM, compared to vehicle treated control
Procedure: Caspases are integral to apoptosis in cells. Following the treatment of SK-N-SH cells with 250 nM B3CD, activation of caspase-3 was measured by using specific substrate.

[11] = test system: ERK1/2; assay: Western Blot analysis of ERK phosphorylation; assay type: cell-based; conditions: neuroblastoma cells
Procedure: as §1, §2

[12] = test system: SK-N-SH cells; assay: DNA laddering by agarose gel electrophoresis; assay type: cell-based; conditions: 250 nM, 48 hours
Procedure: (§5) Initially, during regular microscopic examination of the B3CD treated cells, the cells were condensing and floating in the culture dishes showing indications of apoptosis. In order to determine apoptosis, SK-N-SH and SH-SY5Y cells were treated with 250 nM B3CD for 48 hours. DNA was isolated and analyzed by agarose gel electrophoresis.

[13] = test system: SH-SY5Y cells; assay: DNA laddering by agarose gel electrophoresis; assay type: cell-based; conditions: 250 nM, 48 hours
Procedure: as §5

[14] = test system: panel of cancer cells; assay: Antiproliferative and cytotoxic activity on a panel of cancer cells (MTS, 96 well plates); assay type: cell-based
Text: A panel of cancer cells is used to evaluate the antiproliferative and cytotoxic activities of B3CD and related analogs. The cells include colon (Colo), breast (MCF-7 and MDA-MB-231), lung (A549), prostate PC3 and LNCaP), melanoma (SK-MEL-31), renal (Caki-1), ovarian (OVCAR-3), bladder (T24), pancreatic (BxPC-3), hepatocarcinoma (Hep3B), neuroblastoma (SH-SY5Y), glioblastoma (SNB-19), medulloblastoma (D283 Med), skin (LS123), squamous cell carcinoma (Scc-15), acute promyelocytic leukemia (APL), myeloblastic (HL-60) and myelomonocytic (U937).
The anticancer activity testing will be carried out by high throughput screening. The cancer cells will be cultured in 96 well plates and treated with the library. B3CD has been tested in this system and was effective at a 200 nM dose. For general screening, 2-200 nM doses will be used. Cells will be treated with the compounds for 12, 24, 48 and 72 hours. A 96 well plate format allows testing a large number of compounds simultaneously. An MTS based colorimetric method of evaluation of proliferation will be utilized, which is widely used in cancer drug discovery. The fingerprint of profiled drugs using 60 cell-line screening program by NCl using COMPARE algorithm (Paull K D, Shoemaker R H, Hodes L, Monks A, Scudiero D A, Rubinstein L, Plowman J, Boyd M R. Display and analysis of patterns of differential activity of drugs against human tumor cell lines: development of mean graph and COMPARE algorithm. J Natl Cancer Inst 1989; 81:1088).
as §1

[15] = test system: SK-N-SH cells; assay: Cell viability by MTS assay; assay type: cell-based; conditions: 48 hours
Procedure: as §4

[16] = test system: SK-N-SH, SH-Sy5Y, SMS-KCN and SMS-R neuroblastic cells; assay: Viability and proliferation of neuroblastoma cells, 48 hrs; assay type: cell-based; set-up: inhibition of proliferation: dose or concentration left out as unconfirmed
Procedure: as §1, §2

## C=C1CC[C@H](OC(=O)CBr)C/C1=C/C=C1\CCC[C@]2(C)[C@@H]([C@H](C)CCCC(C)(C)O)CC[C@@H]12 [B3CD, bromoacetic acid 3-{2-[1-(5-hydroxy-1,5-dimethyl-hexyl)-7a-methyl-octahydro-inden-4-ylidene]-ethylidene}-4-methylene-cyclohexyl ester]
[1]
  TrkB signaling by BDNF: inhibited
[2]
  DNA laddering (apoptosis): distinct DNA laddering characteristic of apoptosis
  induction of apoptosis: induced rapid apoptosis
[3]
  proliferation, BrdU incorporation: strong inhibition of proliferation
[4]
  caspase-3 activity: increased; also recorded: activated caspase-3
[5]
  BrdU incorporation: strongly inhibited BrdU incorporation
[6]; VEGF present
  inhibition of angiogenesis / neovascularization (in words): inhibited VEGF induced angiogenesis; also recorded: inhibit
[6]; compared to untreated controls
  inhibition of neovascularization: ~60%
[6]; versus VEGF control eggs
  density of fine capillary network: markedly reduced
[7]
  inhibition of proliferation: dose dependent inhibition of proliferation
[8]
  increase in caspase-3 activity: 5 fold
[9]; 7% in control
  apoptotic cells: 45%
[9]; data not shown
  cell cycle effect: G0/G1 block, inhibition of S-phase
[10]
  increase of caspase-3 activity: ~6 fold
[11]
  phosphorylation of ERK1/2: inhibited phosphorylation
[12]
  DNA laddering: distinct DNA laddering pattern characteristic of apoptosis
[13]
  DNA laddering: distinct DNA laddering pattern characteristic of apoptosis
[14]; 200 nM dose
  anticancer activity in high throughput screening system: effective
[14]; preliminary studies
  cytotoxicity: exhibits cytotoxicity
[15]; 0-800 nM
  viability of SK-N-SH cells (in words): dose dependent decrease
[15]; Homo sapiens, SK-N-SH, 200 nM
  viability at 0.2 µM: < 20%
[16]
  inhibition of proliferation (in words): dose dependent manner
[16]; Neuroblastoma cell, 0.5 nM, p<0.035, read-out: inhibition of viability
  cytotoxicity at 0.0005 µM: > 50%
[16]; p<0.01
  inhibition of proliferation: > 90%
